# Experimental data from ChEMBL document CHEMBL4184320, “Optimization of Selective Mitogen-Activated Protein Kinase Interacting Kinases 1 and 2 Inhibitors for the Treatment of Blast Crisis Leukemia” (J Med Chem, 2018).
# System: not listed separately
# Experiment: Permeability of the compound by PAMPA
# Format: ADME
# Details: read-out: permeability
row,Papp,SMILES
1,0.1 ×10⁻⁶ cm/s,CN1CCN(C(=O)c2ccc(-c3cn4c(-c5ccc(C(=O)O)cc5)cnc4cn3)cc2)CC1
2,25 ×10⁻⁶ cm/s,CN1CCN(C(=O)c2ccc(-c3ccc4ncc(-c5ccc(C#N)cc5)n4n3)cc2)CC1
3,64.7 ×10⁻⁶ cm/s,CN(C)C1CCN(C(=O)c2ccc(-c3cn4c(-c5ccc(C#N)cc5)cnc4cn3)cc2)CC1
4,1.78 ×10⁻⁶ cm/s,CN1CCN(C(=O)c2ccc(-c3cn4c(-c5ccc(C(N)=O)cc5)cnc4cn3)cc2)CC1
5,45.8 ×10⁻⁶ cm/s,N#Cc1ccc(-c2cnc3ccc(-c4ccc(C(=O)N5CCNCC5)cc4)nn23)cc1

# System: not listed separately
# Experiment: Apparent permeability of the compound across apical side to basolateral side in human Caco2 cells by LC-MS/MS analysis
# Format: ADME, cell-based
# Details: Caco-2
row,Papp A→B,SMILES
1,14.6 ×10⁻⁶ cm/s,CN1CCN(C(=O)c2ccc(-c3ccc4ncc(-c5ccc(C#N)cc5)n4n3)cc2)CC1
2,1.14 ×10⁻⁶ cm/s,CN(C)C1CCN(C(=O)c2ccc(-c3cn4c(-c5ccc(C#N)cc5)cnc4cn3)cc2)CC1
3,1.13 ×10⁻⁶ cm/s,N#Cc1ccc(-c2cnc3ccc(-c4ccc(C(=O)N5CCNCC5)cc4)nn23)cc1

# System: not listed separately
# Experiment: in vitro
# Details: human, liver microsomes
# Description: Half life in human liver microsomes at 1 uM in presence of NADPH by LC-MS/MS analysis
row,half-life at 1 µM,SMILES
1,17 min,CN1CCN(C(=O)c2ccc(-c3ccc4ncc(-c5ccc(C#N)cc5)n4n3)cc2)CC1
2,> 60 min,CN(C)C1CCN(C(=O)c2ccc(-c3cn4c(-c5ccc(C#N)cc5)cnc4cn3)cc2)CC1
3,> 60 min,N#Cc1ccc(-c2cnc3ccc(-c4ccc(C(=O)N5CCNCC5)cc4)nn23)cc1

# System: not listed separately
# Experiment: in vitro
# Details: mouse, liver microsomes
# Description: Half life in mouse liver microsomes at 1 uM in presence of NADPH by LC-MS/MS analysis
row,half-life at 1 µM,SMILES
1,23 min,CN1CCN(C(=O)c2ccc(-c3ccc4ncc(-c5ccc(C#N)cc5)n4n3)cc2)CC1
2,> 60 min,CN(C)C1CCN(C(=O)c2ccc(-c3cn4c(-c5ccc(C#N)cc5)cnc4cn3)cc2)CC1
3,42 min,N#Cc1ccc(-c2cnc3ccc(-c4ccc(C(=O)N5CCNCC5)cc4)nn23)cc1

# Target: MAP kinase-interacting serine/threonine-protein kinase 2 (Homo sapiens, UniProt Q9HBH9)
# Experiment: not given
# Details: not given
# MAP kinase-interacting serine/threonine-protein kinase 2, sequence (Q9HBH9 whole entry): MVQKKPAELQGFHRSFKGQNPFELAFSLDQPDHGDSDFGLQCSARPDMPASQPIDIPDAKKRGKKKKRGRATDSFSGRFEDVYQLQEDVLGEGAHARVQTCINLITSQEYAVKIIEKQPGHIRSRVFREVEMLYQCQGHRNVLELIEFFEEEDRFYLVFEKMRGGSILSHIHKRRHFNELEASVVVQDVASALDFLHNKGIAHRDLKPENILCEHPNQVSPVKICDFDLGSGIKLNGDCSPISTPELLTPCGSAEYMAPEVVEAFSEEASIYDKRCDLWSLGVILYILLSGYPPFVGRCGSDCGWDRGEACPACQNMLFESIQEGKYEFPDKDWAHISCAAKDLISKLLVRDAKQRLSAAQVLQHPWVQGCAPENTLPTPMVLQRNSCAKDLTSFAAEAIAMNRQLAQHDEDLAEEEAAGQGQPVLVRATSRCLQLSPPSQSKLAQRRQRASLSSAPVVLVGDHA
row,IC50,SMILES
1,31 nM,CN1CCN(C(=O)c2ccc(-c3cn4c(-c5ccc(C(=O)NO)cc5)cnc4cn3)cc2)CC1
2,515 nM,CC(=O)Nc1cn2c(-c3ccc(O)cc3)cnc2cn1
3,415 nM,Oc1ccc(-c2cnc3cnc(-c4ccccc4)cn23)cc1
4,410 nM,Cc1ccc(-c2cnc3cnc(-c4ccc(C(=O)N5CCN(C)CC5)cc4)cn23)cc1
5,5170 nM,CN1CCN(C(=O)c2ccc(-c3cn4c(-c5ccccc5O)cnc4cn3)cc2)CC1
6,1430 nM,CN1CCN(C(=O)c2ccc(-c3cn4c(-c5ccccc5)cnc4cn3)cc2)CC1
7,355 nM,CN1CCN(C(=O)c2ccc(-c3cn4c(-c5ccc(C(=O)O)cc5)cnc4cn3)cc2)CC1
8,25 nM,CN1CCN(C(=O)c2ccc(-c3ccc4ncc(-c5ccc(C#N)cc5)n4n3)cc2)CC1
9,1080 nM,O=C(Nc1cn2c(-c3ccc(O)cc3)cnc2cn1)c1ccccc1
10,143 nM,CN(C)C1CCN(C(=O)c2ccc(-c3cn4c(-c5ccc(C#N)cc5)cnc4cn3)cc2)CC1
11,187 nM,CN1CCN(C(=O)c2ccc(-c3cn4c(-c5ccc(C(N)=O)cc5)cnc4cn3)cc2)CC1
12,26 nM,N#Cc1ccc(-c2cnc3ccc(-c4ccc(C(=O)N5CCNCC5)cc4)nn23)cc1

# Target: Cytochrome P450 2D6 (Homo sapiens, UniProt P10635)
# Experiment: Inhibition of CYP2D6 in human liver microsomes using dextromethorphan as substrate preincubated for 5 mins followed by NADPH addition by LC-MS/MS analysis
# Format: ADME
# Details: not given
# Cytochrome P450 2D6, sequence (P10635 whole entry): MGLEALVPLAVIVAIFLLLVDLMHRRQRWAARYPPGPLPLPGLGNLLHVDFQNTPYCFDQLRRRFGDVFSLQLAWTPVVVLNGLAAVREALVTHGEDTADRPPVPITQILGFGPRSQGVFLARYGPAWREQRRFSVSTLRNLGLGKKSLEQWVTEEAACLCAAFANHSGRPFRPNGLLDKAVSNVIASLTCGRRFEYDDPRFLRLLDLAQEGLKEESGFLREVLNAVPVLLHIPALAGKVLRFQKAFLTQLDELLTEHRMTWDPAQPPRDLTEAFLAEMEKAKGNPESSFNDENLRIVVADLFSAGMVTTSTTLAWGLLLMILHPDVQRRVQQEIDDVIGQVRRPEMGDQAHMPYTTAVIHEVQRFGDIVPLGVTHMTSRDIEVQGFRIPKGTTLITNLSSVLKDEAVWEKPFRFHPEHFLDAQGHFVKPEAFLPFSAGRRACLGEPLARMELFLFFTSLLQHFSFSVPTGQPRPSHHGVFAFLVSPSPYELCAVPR
row,IC50,SMILES
1,> 20000 nM,CN1CCN(C(=O)c2ccc(-c3ccc4ncc(-c5ccc(C#N)cc5)n4n3)cc2)CC1
2,> 20000 nM,CN(C)C1CCN(C(=O)c2ccc(-c3cn4c(-c5ccc(C#N)cc5)cnc4cn3)cc2)CC1

# Target: Cytochrome P450 3A4 (Homo sapiens, UniProt P08684)
# Experiment: not given
# Details: not given
# Cytochrome P450 3A4, sequence (P08684 whole entry): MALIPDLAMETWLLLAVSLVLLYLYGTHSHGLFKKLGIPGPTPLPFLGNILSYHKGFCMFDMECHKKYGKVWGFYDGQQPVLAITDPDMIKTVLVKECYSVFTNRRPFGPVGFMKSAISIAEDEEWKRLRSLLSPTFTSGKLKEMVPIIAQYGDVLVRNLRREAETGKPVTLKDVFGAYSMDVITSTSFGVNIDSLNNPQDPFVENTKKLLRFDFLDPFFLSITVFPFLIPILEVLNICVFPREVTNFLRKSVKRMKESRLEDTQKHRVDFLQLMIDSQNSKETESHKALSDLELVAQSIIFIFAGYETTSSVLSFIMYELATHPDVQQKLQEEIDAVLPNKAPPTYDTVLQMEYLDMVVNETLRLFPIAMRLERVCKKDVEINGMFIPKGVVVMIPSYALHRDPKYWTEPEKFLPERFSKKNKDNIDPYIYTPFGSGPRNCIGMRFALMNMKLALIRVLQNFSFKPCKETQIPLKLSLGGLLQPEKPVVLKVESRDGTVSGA
row,IC50,SMILES
1,> 20000 nM,CN1CCN(C(=O)c2ccc(-c3ccc4ncc(-c5ccc(C#N)cc5)n4n3)cc2)CC1
2,> 20000 nM,CN(C)C1CCN(C(=O)c2ccc(-c3cn4c(-c5ccc(C#N)cc5)cnc4cn3)cc2)CC1
3,5600 nM,N#Cc1ccc(-c2cnc3ccc(-c4ccc(C(=O)N5CCNCC5)cc4)nn23)cc1

# Target: MAP kinase-interacting serine/threonine-protein kinase 1/2 (Homo sapiens, UniProt Q9HBH9+Q9BUB5)
# Experiment: Inhibition of MNK1/2 in human HeLa cells assessed as decrease in eIF4E phosphorylation at Ser209 after 2 hrs by AlphaScreen assay
# Format: cell-based
# Details: not given
row,IC50,SMILES
1,> 2500 nM,CN1CCN(C(=O)c2ccc(-c3cn4c(-c5ccc(C(=O)NO)cc5)cnc4cn3)cc2)CC1
2,> 2500 nM,CC(=O)Nc1cn2c(-c3ccc(O)cc3)cnc2cn1
3,819 nM,Oc1ccc(-c2cnc3cnc(-c4ccccc4)cn23)cc1
4,1210 nM,Cc1ccc(-c2cnc3cnc(-c4ccc(C(=O)N5CCN(C)CC5)cc4)cn23)cc1
5,1920 nM,CN1CCN(C(=O)c2ccc(-c3cn4c(-c5ccccc5)cnc4cn3)cc2)CC1
6,> 2500 nM,CN1CCN(C(=O)c2ccc(-c3cn4c(-c5ccc(C(=O)O)cc5)cnc4cn3)cc2)CC1
7,326 nM,CN1CCN(C(=O)c2ccc(-c3ccc4ncc(-c5ccc(C#N)cc5)n4n3)cc2)CC1
8,640 nM,CN(C)C1CCN(C(=O)c2ccc(-c3cn4c(-c5ccc(C#N)cc5)cnc4cn3)cc2)CC1
9,> 2500 nM,CN1CCN(C(=O)c2ccc(-c3cn4c(-c5ccc(C(N)=O)cc5)cnc4cn3)cc2)CC1
10,220 nM,N#Cc1ccc(-c2cnc3ccc(-c4ccc(C(=O)N5CCNCC5)cc4)nn23)cc1

# System: not listed separately
# Experiment: Thermodynamic solubility of the compound at pH 4 to 7.4 pION buffer after 18 hrs by UV spectrophotometric analysis
# Format: physicochemical
# Details: read-out: Therm_solubility
row,solubility thermodynamic at 18 h,SMILES
1,> 22 µg/mL,CN1CCN(C(=O)c2ccc(-c3cn4c(-c5ccc(C(=O)O)cc5)cnc4cn3)cc2)CC1
2,86 µg/mL,CN1CCN(C(=O)c2ccc(-c3ccc4ncc(-c5ccc(C#N)cc5)n4n3)cc2)CC1
3,> 45 µg/mL,CN(C)C1CCN(C(=O)c2ccc(-c3cn4c(-c5ccc(C#N)cc5)cnc4cn3)cc2)CC1
4,126 µg/mL,CN1CCN(C(=O)c2ccc(-c3cn4c(-c5ccc(C(N)=O)cc5)cnc4cn3)cc2)CC1
5,115 µg/mL,N#Cc1ccc(-c2cnc3ccc(-c4ccc(C(=O)N5CCNCC5)cc4)nn23)cc1

# System: not listed separately
# Experiment: Octanol-phosphate buffer partition coefficient, logD of compound at pH 7.4 by HPLC-UV analysis
# Format: physicochemical
# Details: not given
row,logD,SMILES
1,-1.37,CN1CCN(C(=O)c2ccc(-c3cn4c(-c5ccc(C(=O)O)cc5)cnc4cn3)cc2)CC1
2,2.82,CN1CCN(C(=O)c2ccc(-c3ccc4ncc(-c5ccc(C#N)cc5)n4n3)cc2)CC1
3,0.73,CN(C)C1CCN(C(=O)c2ccc(-c3cn4c(-c5ccc(C#N)cc5)cnc4cn3)cc2)CC1
4,0.98,CN1CCN(C(=O)c2ccc(-c3cn4c(-c5ccc(C(N)=O)cc5)cnc4cn3)cc2)CC1
5,2,N#Cc1ccc(-c2cnc3ccc(-c4ccc(C(=O)N5CCNCC5)cc4)nn23)cc1

# System: not listed separately
# Experiment: Protein binding in mouse plasma at […] after 5 hrs by LC-MS/MS analysis
# Format: ADME, cell-free
# Details: read-out: PPB (converted)
row,fraction unbound at 5 h,SMILES
1,0.041,CN1CCN(C(=O)c2ccc(-c3ccc4ncc(-c5ccc(C#N)cc5)n4n3)cc2)CC1

# System: not listed separately
# Experiment: Protein binding in human plasma at […] after 5 hrs by LC-MS/MS analysis
# Format: ADME, cell-free
# Details: read-out: PPB (converted)
row,fraction unbound at 5 h,SMILES
1,0.001,CN1CCN(C(=O)c2ccc(-c3ccc4ncc(-c5ccc(C#N)cc5)n4n3)cc2)CC1

# Target: MAP kinase-interacting serine/threonine-protein kinase 1 (Homo sapiens, UniProt Q9BUB5)
# Experiment: not given
# Details: not given
# MAP kinase-interacting serine/threonine-protein kinase 1, sequence (Q9BUB5 whole entry): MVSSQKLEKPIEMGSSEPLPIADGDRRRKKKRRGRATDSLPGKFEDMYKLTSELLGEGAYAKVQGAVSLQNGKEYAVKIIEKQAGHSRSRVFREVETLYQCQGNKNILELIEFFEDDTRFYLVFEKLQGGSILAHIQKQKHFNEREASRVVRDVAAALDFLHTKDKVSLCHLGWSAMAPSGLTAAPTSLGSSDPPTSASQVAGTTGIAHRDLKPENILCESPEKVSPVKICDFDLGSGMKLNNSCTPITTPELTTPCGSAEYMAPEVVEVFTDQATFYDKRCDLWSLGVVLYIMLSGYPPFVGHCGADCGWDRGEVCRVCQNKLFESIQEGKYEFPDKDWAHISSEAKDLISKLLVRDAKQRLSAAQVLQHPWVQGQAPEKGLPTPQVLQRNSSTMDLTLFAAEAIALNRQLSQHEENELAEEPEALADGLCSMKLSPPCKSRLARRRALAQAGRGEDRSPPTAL
row,IC50,SMILES
1,60 nM,CN1CCN(C(=O)c2ccc(-c3cn4c(-c5ccc(C(=O)NO)cc5)cnc4cn3)cc2)CC1
2,789 nM,CC(=O)Nc1cn2c(-c3ccc(O)cc3)cnc2cn1
3,528 nM,Oc1ccc(-c2cnc3cnc(-c4ccccc4)cn23)cc1
4,600 nM,Cc1ccc(-c2cnc3cnc(-c4ccc(C(=O)N5CCN(C)CC5)cc4)cn23)cc1
5,9500 nM,CN1CCN(C(=O)c2ccc(-c3cn4c(-c5ccccc5O)cnc4cn3)cc2)CC1
6,2680 nM,CN1CCN(C(=O)c2ccc(-c3cn4c(-c5ccccc5)cnc4cn3)cc2)CC1
7,700 nM,CN1CCN(C(=O)c2ccc(-c3cn4c(-c5ccc(C(=O)O)cc5)cnc4cn3)cc2)CC1
8,20 nM,CN1CCN(C(=O)c2ccc(-c3ccc4ncc(-c5ccc(C#N)cc5)n4n3)cc2)CC1
9,3350 nM,O=C(Nc1cn2c(-c3ccc(O)cc3)cnc2cn1)c1ccccc1
10,238 nM,CN(C)C1CCN(C(=O)c2ccc(-c3cn4c(-c5ccc(C#N)cc5)cnc4cn3)cc2)CC1
11,294 nM,CN1CCN(C(=O)c2ccc(-c3cn4c(-c5ccc(C(N)=O)cc5)cnc4cn3)cc2)CC1
12,16 nM,N#Cc1ccc(-c2cnc3ccc(-c4ccc(C(=O)N5CCNCC5)cc4)nn23)cc1

# System: not listed separately
# Experiment: Efflux ratio of apparent permeability in human Caco2 cells by LC-MS/MS analysis
# Format: ADME, cell-based
# Details: Caco-2
row,efflux ratio,SMILES
1,4.84,CN1CCN(C(=O)c2ccc(-c3ccc4ncc(-c5ccc(C#N)cc5)n4n3)cc2)CC1
2,7.57,CN(C)C1CCN(C(=O)c2ccc(-c3cn4c(-c5ccc(C#N)cc5)cnc4cn3)cc2)CC1
3,29.9,N#Cc1ccc(-c2cnc3ccc(-c4ccc(C(=O)N5CCNCC5)cc4)nn23)cc1
